Consider six compounds from patent US11000033B2, “Ketone or oxime compound, and herbicide” (NISSAN CHEMICAL CORPORATION, priority 2014, dated 2021).

Holding throughout (type): in vivo
Series [1] has as its system Scirpus juncoides. Nature of the series: Test Example 2: herbicidal activity, application during weed generation in submerged conditions (symbol B). Conditions: Table 23; application herbicide amount 320 g/ha; grade 0-5 by criteria of Test Example 1. The method, boiled down:
(§1)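 Submerged alluvial soil (4 cm) sown with mixed seed; greenhouse 25–30° C. 1–2 leaf: diluted emulsion onto water surface, preset dose. Visual score, 3 wk.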

Series [2] concerns beet. Nature of the series: Test Example 4: effect on crop by soil treatment (symbol f). Conditions: for f: beet, effect grade on crop: 320 g/ha. An outline of the steps:
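The test used sterilized diluvial soil. Seed was set down in spots and overlaid with about 1.5 cm of soil before growth in a greenhouse kept at 25° C. to 30° C.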

Series [3] has as its system Avena fatua. Nature of the series: Test Example 4: herbicidal effect by soil treatment (symbol I). As to conditions: for I: Avena fatua, herbicidal effect grade: 320 g/ha. The method, boiled down:
(§2)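 Seeds were sown in sterilized diluvial soil, covered with about 1.5 cm of soil, and the soil surface was sprayed with a water-diluted emulsion of the compound at a predetermined rate. Plants grew in a greenhouse at 25° C. to 30° C.; effects were scored visually 3 weeks after application.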

In series [4] the test system is Chenopodium album. The series can be described thus: Test Example 4: herbicidal effect by soil treatment (symbol O). Conditions: for O: Chenopodium album, herbicidal effect grade: 320 g/ha. The text has this:
Herbicidal Effect Test by Soil Treatment
Sterilized diluvial soil was placed in a plastic box having a length of 21 cm, a width of 13 cm, and a depth of 7 cm. Each of the seeds of Digitaria ciliaris, Setaria viridis, Echinochloa crus-galli var. crus-galli, Avena fatua, Alopecurus myosuroides, Lolium multiflorum Lam., Apera spica-venti, Abutilon theophrasti, Amaranthus retroflexus, Chenopodium album, Stellaria media, Galium spurium, Veronica persica, corn, soybean, rice, wheat, beet, and rapeseed was sowed in a spot-like manner and was covered with the soil of a thickness of about 1.5 cm. Subsequently, the emulsion agent of the compound present invention prepared in accordance with Formulation Example 2 was diluted with water so as to be a predetermined herbicide amount and the diluted emulsion agent was uniformly applied to the surface of the soil with a small-size spray. The plastic box was placed in a greenhouse of 25° C. to 30° C. to grow plant. 3 weeks later from the herbicide application, the effect to each plant was investigated in accordance with the criteria of Test Example 1.

Series [5] relates to Scirpus juncoides. The series can be described thus: Test Example 1: herbicidal activity, application before weed generation in submerged conditions (symbol B). As to conditions: application herbicide amount 320 g/ha. The method, boiled down:
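Weeds are sown into submerged alluvial soil alongside transplanted 2.5-leaf rice, and the compound, as an emulsion diluted to a set rate, is applied onto the water before emergence. Rating on the 0–5 herbicidal-ratio scale follows 3 weeks of greenhouse growth at 25–30 °C.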

The test system of series [6] is Echinochloa oryzacola Vasing. Nature of the series: Test Example 2: herbicidal activity, application during weed generation in submerged conditions (symbol A). As to conditions: Table 23; application herbicide amount 320 g/ha; grade 0-5 by criteria of Test Example 1. An outline of the steps: as §1
Series [7] relates to rapeseed. Nature of the series: Test Example 5: effect on crop by foliage application, plastic box (symbol g). Conditions: 320 g/ha, 3 weeks after application. The method, boiled down: (§3)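 In a plastic box 7 cm deep filled with sterilized diluvial soil, seeds of crops and weeds such as Digitaria ciliaris, Avena fatua and Amaranthus retroflexus are sown in spots and covered with about 1.5 cm of soil before greenhouse growth at 25–30° C.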

The subject of series [8] is Stellaria media. The series can be described thus: Test Example 4: herbicidal effect by soil treatment (symbol P). As to conditions: for P: Stellaria media, herbicidal effect grade: 320 g/ha. An outline of the steps: as §2
The subject of series [9] is Digitaria ciliaris. The series can be described thus: Test Example 5: herbicidal effect by foliage application, plastic box (symbol F). As to conditions: 320 g/ha, 3 weeks after application. The method, boiled down: (§4)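 After sowing into sterilized diluvial soil and growing two weeks under glass at 25° C. to 30° C., seedlings receive a uniform foliar spray of diluted emulsion. Damage is judged visually three weeks on.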

The subject of series [10] is Echinochloa crus-galli var. crus-galli. The series can be described thus: Test Example 3: herbicidal effect by foliage application, Wagner pot (symbol H). Conditions: application herbicide amount 320 g/ha. An outline of the steps: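 Steps: fill pot with alluvial soil; add water to 0.1–0.5 cm depth; sow weed and rice seed; grow 14 days at 25–30 °C; spray diluted emulsion over the leaves; rate effect after 3 weeks.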

The subject of series [11] is rice plant. Nature of the series: Test Example 5: effect on crop by foliage application, plastic box (symbol b). Conditions: 320 g/ha, 3 weeks after application. The method, boiled down:
as §3

Series [12] has as its system Chenopodium album. Nature of the series: Test Example 5: herbicidal effect by foliage application, plastic box (symbol O). Conditions: 320 g/ha, 3 weeks after application. The method, boiled down: as §4
Where [13] appears, read: application herbicide amount 320 g/ha.

Regarding `C=C(C)CN(CC)C(=O)OC1=C(c2c(C)cc(C)cc2C)C(=O)C(CC(C)=NOC)C1` (centres unmarked) [1-130], the “Herbicidal effect grade, B: Scirpus juncoides” value (“Herbicidal effect grade, B” for short) in series [1] and in series [5] was 0 (Herbicidal ratio of 5% or lower (almost no effect)) throughout. In addition, the “f: beet, effect grade on crop” value in series [2] is 0 (Herbicidal ratio of 5% or lower (almost no effect)). Besides, the “I: Avena fatua, herbicidal effect grade” value in [3] is on record as 0 (Herbicidal ratio of 5% or lower (almost no effect)). The “O: Chenopodium album, herbicidal effect grade” value in series [4] was 0 (Herbicidal ratio of 5% or lower (almost no effect)). Besides, in series [6], the “Herbicidal effect grade, A: Echinochloa oryzacola Vasing.” value was 1 (Herbicidal ratio of 5% or higher and lower than 20%). In addition, the “g: rapeseed, effect on crop (criteria 0-5)” value (“g: rapeseed … (criteria 0-5)” for short) in [7] is 5 (Herbicidal ratio of 90% or more (almost completely withered)). Besides, the “P: Stellaria media, herbicidal effect grade” value in [8] was 0 (Herbicidal ratio of 5% or lower (almost no effect)). The “F: Digitaria ciliaris, herbicidal effect (criteria 0-5)” value (shortened to “F: Digitaria ciliaris … (criteria 0-5)”) in series [9] was 4 (Herbicidal ratio of 70% or higher and lower than 90%). Moreover, the “herbicidal effect on H (Echinochloa crus-galli var. crus-galli), grade 0-5” value (from here on “herbicidal effect on H”) in series [10] was 4 (Herbicidal ratio of 70% or higher and lower than 90%). Moreover, the “b: directly sowed rice plant, effect on crop (criteria 0-5)” value in [11] is reported as 5 (Herbicidal ratio of 90% or more (almost completely withered)).
As for `CC(CC1CC(O)=C(c2c(C)cc(C)cc2C)C1=O)=NOCc1ccccc1Cl` (centres unmarked) [1-113], the “Herbicidal effect grade, B” value in series [1] was 3 (Herbicidal ratio of 40% or higher and lower than 70%); in series [5], 4 (Herbicidal ratio of 70% or higher and lower than 90%). Besides, in [2], the “f: beet, effect grade on crop” value is 0 (Herbicidal ratio of 5% or lower (almost no effect)). Also, the “I: Avena fatua, herbicidal effect grade” value in [3] was 3 (Herbicidal ratio of 40% or higher and lower than 70%). Further, the “O: Chenopodium album, herbicidal effect grade” value in series [4] is listed as 0 (Herbicidal ratio of 5% or lower (almost no effect)). In addition, in series [12], the “O: Chenopodium album, herbicidal effect (criteria 0-5)” value (from here on “O: Chenopodium album … (criteria 0-5)”) is 2 (Herbicidal ratio of 20% or higher and lower than 40%). In addition, the “Herbicidal effect grade, A: Echinochloa oryzacola Vasing.” value in series [6] is 3 (Herbicidal ratio of 40% or higher and lower than 70%). For the same compound, the “g: rapeseed … (criteria 0-5)” value in [7] is listed as 5 (Herbicidal ratio of 90% or more (almost completely withered)). Moreover, in [8], the “P: Stellaria media, herbicidal effect grade” value is 0 (Herbicidal ratio of 5% or lower (almost no effect)). Moreover, the “F: Digitaria ciliaris … (criteria 0-5)” value in series [9] was 5 (Herbicidal ratio of 90% or more (almost completely withered)). The “b: directly sowed rice plant, effect on crop (criteria 0-5)” value in [11] is 4 (Herbicidal ratio of 70% or higher and lower than 90%).
On to `CON=C(C)CC1CC(OC(=O)N(C)CCCCCl)=C(c2c(C)cc(C)cc2C)C1=O` (centres unmarked) [1-126], for which the “f: beet, effect grade on crop” value in series [2] was 0 (Herbicidal ratio of 5% or lower (almost no effect)). In addition, the “I: Avena fatua, herbicidal effect grade” value in series [3] is recorded as 0 (Herbicidal ratio of 5% or lower (almost no effect)). For the same compound, the “O: Chenopodium album, herbicidal effect grade” value in series [4] is given as 0 (Herbicidal ratio of 5% or lower (almost no effect)). The “Herbicidal effect grade, B” value in [5] is given as 0 (Herbicidal ratio of 5% or lower (almost no effect)). For the same compound, the “g: rapeseed … (criteria 0-5)” value in series [7] is 4 (Herbicidal ratio of 70% or higher and lower than 90%). Further, the “P: Stellaria media, herbicidal effect grade” value in series [8] is 0 (Herbicidal ratio of 5% or lower (almost no effect)). Further, the “F: Digitaria ciliaris … (criteria 0-5)” value in series [9] is 3 (Herbicidal ratio of 40% or higher and lower than 70%). Further, the “herbicidal effect on H” value in [10] is 3 (Herbicidal ratio of 40% or higher and lower than 70%). Further, in [11], the “b: directly sowed rice plant, effect on crop (criteria 0-5)” value is 4 (Herbicidal ratio of 70% or higher and lower than 90%).
For `CC(CC1CC(O)=C(c2c(C)cc(C)cc2C)C1=O)=NOCc1ccccc1[N+](=O)[O-]` (centres unmarked) [1-119], in series [2], the “f: beet, effect grade on crop” value is reported as 0 (Herbicidal ratio of 5% or lower (almost no effect)). Further, the “I: Avena fatua, herbicidal effect grade” value in series [3] is 1 (Herbicidal ratio of 5% or higher and lower than 20%). For the same compound, the “O: Chenopodium album, herbicidal effect grade” value in series [4] is 0 (Herbicidal ratio of 5% or lower (almost no effect)). Moreover, the “O: Chenopodium album … (criteria 0-5)” value in series [12] is 3 (Herbicidal ratio of 40% or higher and lower than 70%). Moreover, the “Herbicidal effect grade, B” value in series [5] is 0 (Herbicidal ratio of 5% or lower (almost no effect)). Moreover, the “g: rapeseed … (criteria 0-5)” value in series [7] was 5 (Herbicidal ratio of 90% or more (almost completely withered)). The “P: Stellaria media, herbicidal effect grade” value in [8] was 0 (Herbicidal ratio of 5% or lower (almost no effect)). Moreover, the “F: Digitaria ciliaris … (criteria 0-5)” value in [9] was 5 (Herbicidal ratio of 90% or more (almost completely withered)). In addition, the “herbicidal effect on H” value in series [10] is recorded as 5 (Herbicidal ratio of 90% or more (almost completely withered)). The “b: directly sowed rice plant, effect on crop (criteria 0-5)” value in series [11] is 5 (Herbicidal ratio of 90% or more (almost completely withered)).
Take `CC(CC1CC(OC(=O)N2CCOCC2)=C(c2c(C)cc(-c3ccc(Cl)cc3)cc2C)C1=O)=NOCC(F)(F)F` (mixture of isomers) [9-025]: the “Effect on crop grade, f: beet” value in series [2] (setting [13]) is 0 (Herbicidal ratio of 5% or lower (almost no effect)). Also, the “Herbicidal effect grade, I: Avena fatua” value in series [3] (setting [13]) is 0 (Herbicidal ratio of 5% or lower (almost no effect)). Also, the “Herbicidal effect grade, O: Chenopodium album” value in [4] (setting [13]) was 0 (Herbicidal ratio of 5% or lower (almost no effect)). Besides, in series [12], the “O: Chenopodium album, herbicidal effect grade” value is given as 0 (Herbicidal ratio of 5% or lower (almost no effect)). For the same compound, the “B (Scirpus juncoides) herbicidal effect grade” value in series [5] was 1 (Herbicidal ratio of 5% or higher and lower than 20%). Besides, the “g: rapeseed, effect on crop grade” value in [7] is given as 0 (Herbicidal ratio of 5% or lower (almost no effect)). In addition, the “Herbicidal effect grade, P: Stellaria media” value in [8] (setting [13]) is listed as 0 (Herbicidal ratio of 5% or lower (almost no effect)). Further, in [9], the “F: Digitaria ciliaris, herbicidal effect grade” value is 5 (Herbicidal ratio of 90% or more (almost completely withered)). In addition, in series [10] (Table 24), the “H (Echinochloa crus-galli var. crus-galli) herbicidal effect grade” value is recorded as 0 (Herbicidal ratio of 5% or lower (almost no effect)). Moreover, the “b: directly sowed rice plant, effect on crop grade” value in series [11] was 0 (Herbicidal ratio of 5% or lower (almost no effect)).
For the compound `CON=C(C)CC1CC(OC(=O)C(CSC)=NOC)=C(c2c(C)cc(C)cc2C)C1=O` (centres unmarked) [1-098], the “Herbicidal effect grade, B” value in series [1] is 4 (Herbicidal ratio of 70% or higher and lower than 90%); in [5], 5 (Herbicidal ratio of 90% or more (almost completely withered)). For the same compound, the “f: beet, effect grade on crop” value in series [2] was 0 (Herbicidal ratio of 5% or lower (almost no effect)). Moreover, in series [3], the “I: Avena fatua, herbicidal effect grade” value was 2 (Herbicidal ratio of 20% or higher and lower than 40%). Further, the “O: Chenopodium album … (criteria 0-5)” value in series [12] is listed as 0 (Herbicidal ratio of 5% or lower (almost no effect)). For the same compound, in series [6], the “Herbicidal effect grade, A: Echinochloa oryzacola Vasing.” value is 5 (Herbicidal ratio of 90% or more (almost completely withered)). The “g: rapeseed … (criteria 0-5)” value in [7] was 5 (Herbicidal ratio of 90% or more (almost completely withered)). Besides, the “P: Stellaria media, herbicidal effect grade” value in series [8] is 0 (Herbicidal ratio of 5% or lower (almost no effect)). The “F: Digitaria ciliaris … (criteria 0-5)” value in series [9] is given as 5 (Herbicidal ratio of 90% or more (almost completely withered)). In series [10], the “herbicidal effect on H” value is recorded as 5 (Herbicidal ratio of 90% or more (almost completely withered)). Further, in series [11], the “b: directly sowed rice plant, effect on crop (criteria 0-5)” value is 5 (Herbicidal ratio of 90% or more (almost completely withered)).
